Test results from patent US4137236A, “Amino-spiro[oxa(or thia)cycloalkane-penam]-carboxylic” (U C B, Societe Anonyme, priority 1977, dated 1979).

Columns and labels:
[1] = test system: Escherichia coli B-Ampi R; experiment: MIC in gelose culture medium (relative to reference penicillin); type: cell-based; settings: E.COLI B AMPI-R
Method: This is a mutant of the preceding strain which we have produced.
(§1) For a certain number of compounds of formula (XV), the minimum inhibitory concentration (MIC) was determined as follows:
(§2) The products to be tested are introduced in increasing concentrations into a gelose culture medium in Petri dishes. A multiple inoculator is used to deposit simultaneously drops (10 microliters) of inoculum (suspension of approximately 10^5 bacteria per ml) onto the surface of the medium. After incubation at 37° C for 24 hours, the growth of the bacteria is observed. By definition, the MIC is expressed by the minimum concentration of tested compound which inhibits the multiplication of the bacteia. In the following results, however, the MIC is given as being equal to 1 for the reference compounds and the activity figures given for the tested compounds of formula (XV) are, therefore, relative values. This presentation of the results is more correct and the most reproducible because, for one and the same bacterial strain, different MIC values can be observed if they are measured at different times. This is bound up with the "seasonal" variations in the strains and their nutrient medium.

[2] = test system: Staphylococcus aureus 52149; experiment: as above; type: cell-based; settings: S.AUREUS 52149
Method: This is a Gram-positive coccus, the intrinsic sensitivity of the receptor of which is equivalent to that of the preceding strain but which produces a beta-lactamase which is typical of the species and which renders it resistant to all the penicillins which are sensitive to hydrolysis.
as §1, §2

[3] = test system: Staphylococcus aureus 6538; experiment: as above; type: cell-based; settings: S.AUREUS 6538
Method: This is a Gram-positive coccus which is particularly sensitive to penicillins and which has a low resistance mechanism. This strain of Staphylococcus is, therefore, representative of a maximum sensitivity of the species.
as §1, §2

Escherichia coli B = experiment: as above; type: cell-based; settings: E.COLI B
Method: This is a well-known collection strain of Escherichia coli which produces very little beta-lactamase (of type I) and is, therefore, very sensitive to penicillins. As regards the classification of the beta-lactamases, use is here made of that proposed by M. H. RICHMOND and R. B. SYKES (see Advances in Microbial Physiology,9,(1973),pp.43 and 45).
as §1, §2

beta-lactamase TEM [4] = experiment: Rate of hydrolysis by beta-lactamase measured as NaOH consumed per minute; type: biochemical
Text: This method allows the dosage of the penicilloic acid resulting from the hydrolysis of the beta-lactam function by the lytic enzyme. The results of these kinetics, as given in the following Table, clearly show the superiority of compounds E and H as compared with pencillin G.

[5] = test system: Escherichia coli K 12-44 R; experiment: MIC in gelose culture medium (relative to reference penicillin); type: cell-based; settings: E.COLI K 12-44R; reference ampicillin = 1
Method: This strain is a pleiotropic mutant of Escherichia coli K 12-44, which we have produced. It is not a producer of beta-lactamase but, nevertheless, it has a resistance to penicillins, probably as a result of the modification of the permeability of the cell membranes.
as §1, §2

Escherichia coli K 12-44 = experiment: as above; type: cell-based; settings: E.COLI K 12-44; reference ampicillin = 1
Method: This is a mutant of Escherichia coli K 12, the typical reference parent strain of the species. This mutant is not a producer of beta-lactamase.
as §1, §2

beta-lactamase P 99 = beta-lactamase P 99 (Enterobacter cloacae, UniProt P05364); experiment: Hydrolysis kinetics: residual activity in the presence of beta-lactamase; type: biochemical, Gram-negative bacteria
Chain of beta-lactamase P 99 (P05364 21-381): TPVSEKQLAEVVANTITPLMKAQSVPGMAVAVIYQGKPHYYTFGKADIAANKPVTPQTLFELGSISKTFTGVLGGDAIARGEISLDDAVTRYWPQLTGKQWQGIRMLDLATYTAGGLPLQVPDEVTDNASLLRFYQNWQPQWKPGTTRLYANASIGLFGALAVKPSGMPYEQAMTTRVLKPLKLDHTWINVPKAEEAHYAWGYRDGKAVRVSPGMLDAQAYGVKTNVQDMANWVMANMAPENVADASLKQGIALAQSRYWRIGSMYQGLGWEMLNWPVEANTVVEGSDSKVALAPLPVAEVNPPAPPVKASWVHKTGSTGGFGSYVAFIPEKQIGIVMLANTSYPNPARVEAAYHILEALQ

beta-lactamase TEM [6] = target: beta-lactamase TEM (Escherichia coli, UniProt P62593); experiment: as above; type: biochemical, Gram-negative bacteria
Chain of beta-lactamase TEM (Escherichia coli, UniProt P62593) (P62593 24-286 limits assumed): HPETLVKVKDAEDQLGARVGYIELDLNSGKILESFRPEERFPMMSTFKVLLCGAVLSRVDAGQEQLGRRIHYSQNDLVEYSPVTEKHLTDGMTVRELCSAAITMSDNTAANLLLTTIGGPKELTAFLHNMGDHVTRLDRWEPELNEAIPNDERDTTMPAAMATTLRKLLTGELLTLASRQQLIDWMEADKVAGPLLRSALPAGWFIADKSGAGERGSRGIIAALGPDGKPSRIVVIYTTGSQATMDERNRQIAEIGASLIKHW

[7] = test system: Escherichia coli K 12-44 S; experiment: MIC in gelose culture medium (relative to reference penicillin); type: cell-based; settings: E.COLI K 12-44S; reference ampicillin = 1
Method: It is very sensitive to penicillins due to hyperpermeability.
as §1, §2

[8] = reference 6-amino-penicillanic acid = 1

Structure (SMILES): O=C(Cc1ccccc1)N[C@@H]1C(=O)N2[C@@H]1SC1(CCOCC1)[C@@H]2C(=O)O (relative stereo) [Compound A, 6-(2"-phenylacetamido)-2',3',5',6'-tetrahydro-spiro[penam-2,4'-[4H]pyran]-3-carboxylic acid]
- MIC relative to reference compound (=1) ([1]; reference penicillin G = 1): 2
- MIC relative to reference compound (=1) ([2]; reference penicillin G = 1): 2
- MIC relative to reference compound (=1) ([3]; reference penicillin G = 1): 2
- MIC relative to reference compound (=1) (Escherichia coli B; reference penicillin G = 1): 4

Structure (SMILES): Cc1onc(-c2ccccc2)c1C(=O)N[C@@H]1C(=O)N2[C@@H]1SC1(CCOCC1)[C@@H]2C(=O)O (relative stereo) [Compound C, 6-(5"-methyl-3"-phenyl-4"-isoxazolecarboxamido)-2',3',5',6'-tetrahydro-spiro[penam-2,4'-[4H]pyran]-3-carboxylic acid]
- MIC relative to reference compound (=1) ([2]; reference oxacillin = 1): 1
- MIC relative to reference compound (=1) ([3]; reference oxacillin = 1): 2

Structure (SMILES): O=C(Cc1ccccc1)N[C@@H]1C(=O)N2[C@@H]1SC1(CCSCC1)[C@@H]2C(=O)O (relative stereo) [Compound E, 6-(2"-phenylacetamido)-2',3',5',6'-tetrahydro-spiro[penam-2,4'-[4H]thiopyran]-3-carboxylic acid]
- MIC relative to reference compound (=1) ([1]; reference penicillin G = 1): > 2
- MIC relative to reference compound (=1) ([2]; reference penicillin G = 1): 1
- Rate of hydrolysis: microliters 0.005 N NaOH consumed per minute (beta-lactamase TEM [4]): 0.64 microliters 0.005 N NaOH per m
- MIC relative to reference compound (=1) ([3]; reference penicillin G = 1): 10
- MIC relative to reference compound (=1) (Escherichia coli B; reference penicillin G = 1): 5

Structure (SMILES): COc1cccc(OC)c1C(=O)N[C@@H]1C(=O)N2[C@@H]1SC1(CCSCC1)[C@@H]2C(=O)O (relative stereo) [Compound G, 6-(2",6"-dimethoxybenzamido)-2',3',5',6'-tetrahydro-spiro[penam-2,4'-[4H]thiopyran]-3-carboxylic acid]
- MIC relative to reference compound (=1) ([2]; reference methicillin = 1): 0.5

Structure (SMILES): N[C@@H](C(=O)NC1C(=O)N2C1SC1(CCOCC1)C2C(=O)O)c1ccccc1 (single isomer, unassigned) [Compound B, 6-(2"-amino-2"-phenylacetamido)-2',3',5',6'-tetrahydro-spiro[penam-2,4'-[4H]pyran]-3-carboxylic acid]
- MIC relative to reference compound (=1) ([1]; reference ampicillin = 1): 1
- MIC relative to reference compound (=1) [5]: 1.5
- MIC relative to reference compound (=1) (Escherichia coli K 12-44): 3.5
- MIC relative to reference compound (=1) (Escherichia coli B; reference ampicillin = 1): 3.5
- Remaining activity as percentage of initial (beta-lactamase P 99; after incubation for 9 minutes): 67%
- Residual activity in the presence of beta-lactamase (beta-lactamase P 99; incubation time 0 minutes): 500 µmol
- Residual activity in the presence of beta-lactamase (beta-lactamase P 99; incubation time 3 minutes): 458 µmol
- Residual activity in the presence of beta-lactamase (beta-lactamase P 99; incubation time 6 minutes): 422 µmol
- Residual activity in the presence of beta-lactamase (beta-lactamase P 99; incubation time 9 minutes): 334 µmol
- Residual activity in the presence of beta-lactamase (beta-lactamase P 99; incubation time 12 minutes): 312 µmol
- Residual activity in the presence of beta-lactamase (beta-lactamase P 99; incubation time 20 minutes): 300 µmol
- Remaining activity as percentage of initial (beta-lactamase TEM [6]; after incubation for 6 minutes): 87%
- Residual activity in the presence of beta-lactamase (beta-lactamase TEM [6]; incubation time 0 minutes): 500 µmol
- Residual activity in the presence of beta-lactamase (beta-lactamase TEM [6]; incubation time 2 minutes): 469 µmol
- Residual activity in the presence of beta-lactamase (beta-lactamase TEM [6]; incubation time 4 minutes): 453 µmol
- Residual activity in the presence of beta-lactamase (beta-lactamase TEM [6]; incubation time 6 minutes): 438 µmol
- Residual activity in the presence of beta-lactamase (beta-lactamase TEM [6]; incubation time 12 minutes): 334 µmol
- Residual activity in the presence of beta-lactamase (beta-lactamase TEM [6]; incubation time 18 minutes): 225 µmol

Structure (SMILES): CC1(C)S[C@@H]2[C@H](NC(=O)[C@H](N)c3ccccc3)C(=O)N2[C@H]1C(=O)O [Ampicillin, ampicillin, reference compound]
- MIC relative to reference compound (=1) ([1]; reference ampicillin = 1): 1
- MIC relative to reference compound (=1) [5]: 1
- MIC relative to reference compound (=1) (Escherichia coli K 12-44): 1
- MIC relative to reference compound (=1) ([3]; reference ampicillin = 1): 1
- MIC relative to reference compound (=1) [7]: 1
- MIC relative to reference compound (=1) (Escherichia coli B; reference ampicillin = 1): 1
- Residual activity in the presence of beta-lactamase (beta-lactamase P 99; incubation time 0 minutes): 500 µmol
- Residual activity in the presence of beta-lactamase (beta-lactamase P 99; incubation time 3 minutes): 262 µmol
- Residual activity in the presence of beta-lactamase (beta-lactamase P 99; incubation time 6 minutes): 138 µmol
- Residual activity in the presence of beta-lactamase (beta-lactamase P 99; incubation time 9 minutes): < 50 µmol
- Residual activity in the presence of beta-lactamase (beta-lactamase P 99; incubation time 9 minutes, listed as ampicillin): no more detectable
- Residual activity in the presence of beta-lactamase (beta-lactamase P 99; incubation time 12 minutes): < 50 µmol
- Residual activity in the presence of beta-lactamase (beta-lactamase P 99; incubation time 20 minutes): < 50 µmol
- Residual activity in the presence of beta-lactamase (beta-lactamase TEM [6]; incubation time 0 minutes): 500 µmol
- Residual activity in the presence of beta-lactamase (beta-lactamase TEM [6]; incubation time 6 minutes): < 50 µmol
- Residual activity in the presence of beta-lactamase (beta-lactamase TEM [6]; incubation time 6 minutes, listed as ampicillin): no more detectable
- Residual activity in the presence of beta-lactamase (beta-lactamase TEM [6]; incubation time 12 minutes): < 50 µmol
- Residual activity in the presence of beta-lactamase (beta-lactamase TEM [6]; incubation time 18 minutes): < 50 µmol

Structure (SMILES): NC(C(=O)NC1C(=O)N2C1SC1(CCSCC1)C2C(=O)O)c1ccccc1 (stereo not drawn) [Compound F, 6-(2"-amino-2"-phenylacetamido)-2',3',5',6'-tetrahydro-spiro[penam-2,4'-[4H]thiopyran]-3-carboxylic acid]
- MIC relative to reference compound (=1) ([1]; reference ampicillin = 1): 3
- MIC relative to reference compound (=1) [5]: > 1.5
- MIC relative to reference compound (=1) (Escherichia coli K 12-44): 10
- MIC relative to reference compound (=1) ([3]; reference ampicillin = 1): 2
- MIC relative to reference compound (=1) [7]: 15
- MIC relative to reference compound (=1) (Escherichia coli B; reference ampicillin = 1): 7
- Resistance to beta-lactamase as compared with ampicillin (in words) (beta-lactamase P 99): increased resistance
- Resistance to beta-lactamase as compared with ampicillin (in words) (beta-lactamase TEM [6]): increased resistance

Structure (SMILES): O=C(Cc1ccccc1)NC1C(=O)N2C1SC1(CC[S+]([O-])CC1)C2C(=O)O (stereo not drawn) [Compound H, 6-(2"-phenylacetamido)-2',3',5',6'-tetrahydro-spiro[penam-2,4'-[4H]thiopyran]-3-carboxylic acid 1'-oxide]
- MIC relative to reference compound (=1) ([2]; reference penicillin G = 1): 1
- Rate of hydrolysis: microliters 0.005 N NaOH consumed per minute (beta-lactamase TEM [4]): 0.50 microliters 0.005 N NaOH per m
- MIC relative to reference compound (=1) ([3]; reference penicillin G = 1): 1
- MIC relative to reference compound (=1) (Escherichia coli B; reference penicillin G = 1): 1

Structure (SMILES): NC(C(=O)NC1C(=O)N2C1SC1(CC[S+]([O-])CC1)C2C(=O)O)c1ccccc1 (stereo not drawn) [Compound J, 6-(2"-amino-2"-phenylacetamido)-2',3',5',6'-tetrahydro-spiro[penam-2,4'-[4H]thiopyran]-3-carboxylic acid 1'-oxide]
- MIC relative to reference compound (=1) ([1]; reference ampicillin = 1): 2
- MIC relative to reference compound (=1) [5]: 2
- MIC relative to reference compound (=1) (Escherichia coli K 12-44): 3
- MIC relative to reference compound (=1) ([3]; reference ampicillin = 1): 2
- MIC relative to reference compound (=1) [7]: 3
- MIC relative to reference compound (=1) (Escherichia coli B; reference ampicillin = 1): 1
- Resistance to beta-lactamase as compared with ampicillin (in words) (beta-lactamase P 99): No change in behavior
- Resistance to beta-lactamase as compared with ampicillin (in words) (beta-lactamase TEM [6]): No change in behavior

Structure (SMILES): COc1cccc(OC)c1C(=O)N[C@@H]1C(=O)N2[C@@H]1SC(C)(C)[C@@H]2C(=O)O [Methicillin, methicillin, reference compound]
- MIC relative to reference compound (=1) ([2]; reference methicillin = 1): 1

Structure (SMILES): Cc1onc(-c2ccccc2)c1C(=O)N[C@@H]1C(=O)N2[C@@H]1SC(C)(C)[C@@H]2C(=O)O [Oxacillin, oxacillin, reference compound]
- MIC relative to reference compound (=1) ([2]; reference oxacillin = 1): 1
- MIC relative to reference compound (=1) ([3]; reference oxacillin = 1): 1

Structure (SMILES): CC1(C)S[C@@H]2C(N)C(=O)N2[C@H]1C(=O)O (stereo partly drawn) [Penicillanic acid, 6-amino-penicillanic acid, reference compound]
- MIC relative to reference compound (=1) [1, 8]: 1
- MIC relative to reference compound (=1) [2, 8]: 1
- MIC relative to reference compound (=1) [3, 8]: 1
- MIC relative to reference compound (=1) (Escherichia coli B; [8]): 1

Structure (SMILES): CC1(C)S[C@@H]2[C@H](NC(=O)Cc3ccccc3)C(=O)N2[C@H]1C(=O)O [Penicillin G, penicillin G, reference compound]
- MIC relative to reference compound (=1) ([2]; reference penicillin G = 1): 1
- Rate of hydrolysis: microliters 0.005 N NaOH consumed per minute (beta-lactamase TEM [4]): 3.83 microliters 0.005 N NaOH per m
- MIC relative to reference compound (=1) ([3]; reference penicillin G = 1): 1
